Earlier results in patent US20110014255A1, “PHYTOSANITARY FORMULATION GENERATING NANOPARTICLES, METHOD FOR PREPARING NANOPARTICLES AND USE THEREOF” (priority 2006, published 2011).
Several values for one entry are separate records, joined by “and”; a condition that tells them apart may be missing. Equal entries are not always repeated. Structures can show the parent of a compound that is named as a salt.

conditions: % by weight

Row | miscibility in water | Compound
1 | 0.6% | CCCC(O)C(CC)CO (centres unmarked) [2-ethyl-1,3-hexanediol]
2 | 0.63% | CCC(CC)CO [2-ethylbutanol]
3 | 0.07% | CCCCC(CC)CO (centres unmarked) [2-ethylhexanol]
4 | 4.5% | CCCCOC(=O)[C@H](C)O [(S)-n-butyl lactate]
5 | 0.35% | CCCCCC(C)O (centres unmarked) [Example 2-heptanol, 2-heptanol]
6 | 0.43% | CCCCCCCC(=O)N(C)C [N,N-dimethyloctanamide]
7 | 0.1% | CCCCCCCCN1CCCC1=O [N-octylpyrrolidone]
8 | 1% | CCCCCOC(C)=O [N-pentyl acetate]
9 | 0.001% | CC(=O)OCc1ccccc1 [benzyl acetate]
10 | 7.1% | CCCC=O [butyraldehyde]
11 | 0.02% | CCCCCCCCCCO [decanol]
12 | 6.5% | CCCCOCCOCCO [diethylene glycol n-butyl ether]
13 | 2.4% | COCOC [dimethoxymethane]
14 | 2.5% | COC(=O)CCCCC(=O)OC [dimethyl adipate]
15 | 5% | COC(=O)C(=O)OC [dimethyl oxalate]
16 | 8% | CCOC(C)=O [ethyl acetate]
17 | 2% | CC(=O)OCCC(C)C [isoamyl acetate]
18 | 0.67% | CC(=O)OCC(C)C [isobutyl acetate]
19 | 0.5% | CC(C)COC(=O)C(C)C [isobutyl isobutyrate]
20 | 2.9% | CC(=O)OC(C)C [isopropyl acetate]
21 | 2.3% | CCCOC(C)=O [propyl acetate]

Continued, molecule first:

Row | Compound | miscibility in water
22 | CC(Cl)Cl [1,1-dichloroethane] | 5.03%
23 | CC(=O)c1ccccc1 [acetophenone] | 0.55%
24 | C=CC#N [acrylonitrile] | 7.35%
25 | COc1ccccc1 [anisole] | 1.04%
26 | N#Cc1ccccc1 [benzonitrile] | 0.2%
27 | OCc1ccccc1 [benzyl alcohol] | 0.08%
28 | O=C(OCc1ccccc1)c1ccccc1O [benzyl salicylate] | 0.005%
29 | CCCCOC(C)=O [butyl acetate] | 2.9%
30 | CCCC#N [butyronitrile] | 3.3%
31 | O=C1CCCCC1 [cyclohexanone] | 2.4% and 2.3%
32 | ClCCl [dichloro-methane] | 1.3%
33 | CCOC(=O)c1ccccc1C(=O)OCC [diethyl phthalate] | 0.1%
34 | COC(=O)c1ccccc1C(=O)OC [dimethyl phthalate] | 1.84%
35 | c1ccc(Oc2ccccc2)cc1 [diphenyl ether] | 0.002%
36 | ClCC1CO1 (centres unmarked) [epichlorohydrin] | 6.58%
37 | O=Cc1ccco1 [furfuraldehyde] | 8.3%
38 | CC1=CC(=O)CC(C)(C)C1 [isophorone] | 1.2%
39 | CC(=O)CC(C)C [methyl isobutyl ketone] | 1.7%
40 | COC(=O)c1ccccc1O [methyl salicylate] | 0.074% and 0.07%
41 | c1ccc2ncccc2c1 [quinoline] | 0.61%
42 | CCCCOCCOP(=O)(OCCOCCCC)OCCOCCCC [tributoxyethyl phosphate] | 0.11%
43 | CCCCC(CC)COP(=O)(OCC(CC)CCCC)OCC(CC)CCCC (centres unmarked) [tris(2-ethylhexyl)phosphate] | 0.1%

same assay, conditions: % by weight; listed as octyl pyrrolidone

Row | Compound | miscibility in water
44 | CCCCCCCCN1CCCC1=O [N-octylpyrrolidone] | not more than 0.1%
